# According to a melting point compilation (Tetko et al.):
row,melting point,SMILES
1,109 to 111 °C,NC(=S)N1CCc2sccc2C1
2,176 to 181 °C,Clc1ccnc2[nH]ccc12
3,180 to 182 °C,Oc1cccc(CNC2CCC(O)CC2)c1 (centres undefined)
4,118 to 120 °C,NS(=O)(=O)N1CCCNCC1
5,208 to 210 °C,CC(O)CNS(=O)(=O)c1ccc(C(=O)O)cc1 (centres undefined)
6,123 to 125 °C,CCC(C)NC(=O)c1ccc(N)c(C)c1 (centres undefined)
7,170 to 172 °C,CCCCc1ccc(NS(=O)(=O)c2ccc(N)cc2OC)cc1
8,86 to 88 °C,O=C1C=CC(=O)N1c1cccc(Cl)c1
9,205 to 207 °C,NC(=O)N1CCCC1C(=O)O (centres undefined)
10,121 to 123 °C,O=C(Cc1cccc(F)c1)c1ccc(Cl)c(Cl)c1
11,40 to 42 °C,COCCc1ccc(S(=O)(=O)Cl)cc1
12,166 to 168 °C,O=C(O)C1CCCN(c2nc3ccccc3s2)C1 (centres undefined)
13,266 to 268 °C,CC1CCc2c(sc3nc(CC#N)[nH]c(=O)c23)C1 (centres undefined)
14,110 to 112 °C,OCCNc1ccncc1
15,80 to 82 °C,O=C(c1ccc(Cl)cc1)N1CCNCC1
16,104 to 106 °C,O=C(CCCl)Nc1ccccc1Br
17,77 to 79 °C,CC(=O)CN1C(=O)COCC1=O
18,65 to 67 °C,O=C(O)C1(Sc2ccccc2)CCCC1
19,59 to 61 °C,COCc1ccccc1S(N)(=O)=O

row,melting point,SMILES
1,153 to 155 °C,Cc1n[nH]c(-c2ccccc2N)n1
2,239 to 241 °C,Nc1ccc(N2C(=O)CCC2=O)cc1
3,109 to 111 °C,O=C(O)C12CC3CC(CC(F)(C3)C1)C2
4,161 to 163 °C,Fc1cc(Br)cc2cc(Br)cnc12
5,268 to 270 °C,O=C1COc2ccncc2N1
6,147 to 149 °C,O=C(O)C1CC1c1ccc(OCc2ccccc2)cc1 (centres undefined)
7,74 to 76 °C,COC(=O)c1ccc2c(c1)CCN2
8,183 to 185 °C,Nc1nn2cc(-c3ccccc3)nc2s1
9,124 to 126 °C,Nc1nonc1-c1ccccn1
10,168 to 170 °C,CC(C)(N)c1noc(C(N)=O)n1
11,32 to 34 °C,CCCCCCOc1ccc(CO)cc1
12,183 to 185 °C,O=C1Nc2cc(OC(F)(F)F)ccc2C1=O
13,105 to 106 °C,CCOC(=O)c1sc(-c2ccc(Br)cc2)cc1N
14,88 to 90 °C,O=C(O)C(=O)c1ccc(F)c(F)c1
15,104 to 106 °C,CC(C)Cn1c(N)c(C(=O)CCl)c(=O)n(C)c1=O
16,48 to 50 °C,Cc1cc([N+](=O)[O-])cnc1N1CCCCC1C (centres undefined)
17,85 to 87 °C,O=Cc1cc(Cl)cc2c1OCC2
18,95 to 98 °C,Nc1nc2c(s1)CN(Cc1ccccc1)CC2
19,81 to 83 °C,COCCCOc1cccc(C(=O)O)c1

row,melting point,SMILES
1,103 to 105 °C,O=C(O)C1CCN(C(=O)c2ccoc2)CC1
2,239 to 241 °C,N#Cc1ccc(C(=O)O)[nH]1
3,146 to 148 °C,OC(c1ccc(F)cc1)C1CCNCC1 (centres undefined)
4,264 to 266 °C,O=C(O)c1cccn2cc(CN3CCCC3)nc12
5,101 to 103 °C,O=C(O)Cc1cc(Cl)ccc1Cl
6,132 to 134 °C,CCOC(=O)NC1CCC(O)CC1 (centres undefined)
7,169 to 171 °C,Nc1nc(C(=O)Nc2ccccc2)cs1
8,196 to 198 °C,O=C(O)c1cccnc1OCCO
9,160 to 162 °C,NC(=O)c1ccsc1N
10,61 to 63 °C,CC1CNCC(C)N1C(=O)OC(C)(C)C (centres undefined)
11,138 to 140 °C,CC(=O)c1ccc(SCC(=O)O)cc1F
12,139 to 141 °C,Cc1ccc(N)cc1-n1nnnc1C
13,107 to 109 °C,CCC(CO)NC(=O)Cc1ccc(N)cc1 (centres undefined)
14,285 to 287 °C,CCC(N)(C(=O)O)c1ccccc1 (centres undefined)
15,233 to 235 °C,Cc1cc(C)c2c(c1)NC(=O)C2=O
16,250 to 252 °C,Nc1nnc(CC2CCCCC2)s1
17,285 to 287 °C,O=C(NC1(C(=O)O)CCCC1)c1ccc2[nH]ncc2c1
18,81 to 83 °C,O=C(O)CC1C=CS(=O)(=O)C1 (centres undefined)
19,180 to 184 °C,Cc1ccc2c(c1)C(=O)C(=O)N2

row,SMILES,melting point
1,CNC(=O)NC(=O)C(C)Cl (centres undefined),118 to 120 °C
2,CCOC(=O)c1c(C)n(C2CCCCC2)c2ccc(O)cc12,247 to 249 °C
